Test system: MDA-MB-468 spheroids with HUVEC/MSC, viability
Assay: Anticancer human tumor MDA-MB-468 cell line growth inhibition [PI3K];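 note: spheroids exposed to agents for seven days before readout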;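 for viability, T/C: 100% = DMSO vehicle control viability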
Conditions: for viability, T/C: stronger effect = lower value
In short: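 Tumor cells grown as multi-cell spheroids with HUVEC endothelial cells and MSC fibroblast-like stroma were treated with targeted agents combined with inavolisib, alpelisib, duvelisib or copanlisib. Doses fell in half-log steps from near clinical Cmax, else from 10 microM. Viability was measured.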

[1] = curve of first compound, second compound 0.0316 µM
[2] = curve of first compound, second compound 0.1 µM
[3] = curve of first compound, second compound 0.316 µM
[4] = curve of first compound, second compound 1 µM
[5] = second compound 0.0316 µM, first compound 0.0316 µM
[6] = second compound 0.0316 µM, first compound 0.1 µM
[7] = second compound 0.1 µM, first compound 0.0316 µM
[8] = second compound 0.1 µM, first compound 0.1 µM
[9] = second compound 0.316 µM, first compound 0.0316 µM
[10] = second compound 0.316 µM, first compound 0.1 µM
[11] = second compound 1 µM, first compound 0.0316 µM
[12] = second compound 1 µM, first compound 0.1 µM

Work on `Cn1ncc(Cl)c1-c1cc(C(=O)NC(CN)Cc2cccc(F)c2)sc1Cl` (stereo unspecified) + CC(Nc1ccc2c(c1)OCCn1cc(N3C(=O)OCC3C(F)F)nc1-2)C(N)=O yielded an IC50 (curve of first compound, second compound 0.00316 µM) of 306 nM, an IC50 (curve of first compound, second compound 0.01 µM) of 359 nM and an IC50 [1] of 284 nM. For the same compound, the IC50 [2] was 229 nM, the IC50 [3] was 157 nM and the IC50 [4] was 133 nM. The viability, T/C (second compound 0.00316 µM, first compound 0.0316 µM) was 89.7%, the viability, T/C (second compound 0.00316 µM, first compound 0.1 µM) was 72.2% and the viability, T/C (second compound 0.00316 µM, first compound 0.316 µM) was 42.9%. For the same compound, the viability, T/C (second compound 0.00316 µM, first compound 1 µM) was 35.6%, the viability, T/C (second compound 0.00316 µM, first compound 3.16 µM) was 22% and the viability, T/C (second compound 0.00316 µM, first compound 10 µM) was 7.53%. It also gave a viability, T/C (second compound 0.01 µM, first compound 0.0316 µM) of 83.7%, a viability, T/C (second compound 0.01 µM, first compound 0.1 µM) of 74.4% and a viability, T/C (second compound 0.01 µM, first compound 0.316 µM) of 44.8%. The viability, T/C (second compound 0.01 µM, first compound 1 µM) was 36.4%, the viability, T/C (second compound 0.01 µM, first compound 3.16 µM) was 25.6% and the viability, T/C (second compound 0.01 µM, first compound 10 µM) was 5.85%. The viability, T/C [5] was 91.2%, the viability, T/C [6] was 71.8% and the viability, T/C (second compound 0.0316 µM, first compound 0.316 µM) was 39.9%. It also gave a viability, T/C (second compound 0.0316 µM, first compound 1 µM) of 33.7%, a viability, T/C (second compound 0.0316 µM, first compound 3.16 µM) of 22.1% and a viability, T/C (second compound 0.0316 µM, first compound 10 µM) of 3.85%. For the same compound, the viability, T/C [7] was 78.7%, the viability, T/C [8] was 63.6% and the viability, T/C (second compound 0.1 µM, first compound 0.316 µM) was 39.8%. It also gave a viability, T/C (second compound 0.1 µM, first compound 1 µM) of 33.6%, a viability, T/C (second compound 0.1 µM, first compound 3.16 µM) of 20.8% and a viability, T/C (second compound 0.1 µM, first compound 10 µM) of 4.34%. The viability, T/C [9] was 75.8%, the viability, T/C [10] was 59.6% and the viability, T/C (second compound 0.316 µM, first compound 0.316 µM) was 33.8%. For the same compound, the viability, T/C (second compound 0.316 µM, first compound 1 µM) was 27.5%, the viability, T/C (second compound 0.316 µM, first compound 3.16 µM) was 19.2% and the viability, T/C (second compound 0.316 µM, first compound 10 µM) was 4.28%. For the same compound, the viability, T/C [11] was 76.2%, the viability, T/C [12] was 53% and the viability, T/C (second compound 1 µM, first compound 0.316 µM) was 37.2%. It also gave a viability, T/C (second compound 1 µM, first compound 1 µM) of 21.8%, a viability, T/C (second compound 1 µM, first compound 3.16 µM) of 18.9% and a viability, T/C (second compound 1 µM, first compound 10 µM) of 3.04%.
In the case of `CC(=O)c1c(C)c2cnc(Nc3ccc(N4CCNCC4)cn3)nc2n(C2CCCC2)c1=O` + CC(Nc1ncnc2nc[nH]c12)c1cc2cccc(Cl)c2c(=O)n1-c1ccccc1, the IC50 [1] is reported as > 100 nM, the IC50 [2] is reported as > 100 nM and the IC50 [3] is reported as > 100 nM. For the same compound, the IC50 [4] was > 100 nM, the IC50 (curve of first compound, second compound 3.16 µM) was > 100 nM and the IC50 (curve of first compound, second compound 10 µM) was < 0.316 nM. For the same compound, the viability, T/C (second compound 0.0316 µM, first compound 0.000316 µM) was 92.6%, the viability, T/C (second compound 0.0316 µM, first compound 0.001 µM) was 93.9% and the viability, T/C (second compound 0.0316 µM, first compound 0.00316 µM) was 84.6%. For the same compound, the viability, T/C (second compound 0.0316 µM, first compound 0.01 µM) was 103%, the viability, T/C [5] was 99.7% and the viability, T/C [6] was 88.1%. The viability, T/C (second compound 0.1 µM, first compound 0.000316 µM) was 88.6%, the viability, T/C (second compound 0.1 µM, first compound 0.001 µM) was 91.2% and the viability, T/C (second compound 0.1 µM, first compound 0.00316 µM) was 84.1%. The viability, T/C (second compound 0.1 µM, first compound 0.01 µM) was 92.7%, the viability, T/C [7] was 80% and the viability, T/C [8] was 86.4%. For the same compound, the viability, T/C (second compound 0.316 µM, first compound 0.000316 µM) was 84.7%, the viability, T/C (second compound 0.316 µM, first compound 0.001 µM) was 78.9% and the viability, T/C (second compound 0.316 µM, first compound 0.00316 µM) was 81.3%. For the same compound, the viability, T/C (second compound 0.316 µM, first compound 0.01 µM) was 72.8%, the viability, T/C [9] was 90% and the viability, T/C [10] was 78.5%. The viability, T/C (second compound 1 µM, first compound 0.000316 µM) was 66.4%, the viability, T/C (second compound 1 µM, first compound 0.001 µM) was 71.4% and the viability, T/C (second compound 1 µM, first compound 0.00316 µM) was 59.3%. It also gave a viability, T/C (second compound 1 µM, first compound 0.01 µM) of 83.3%, a viability, T/C [11] of 76.2% and a viability, T/C [12] of 62.8%. For the same compound, the viability, T/C (second compound 3.16 µM, first compound 0.000316 µM) was 59.6%, the viability, T/C (second compound 3.16 µM, first compound 0.001 µM) was 53.1% and the viability, T/C (second compound 3.16 µM, first compound 0.00316 µM) was 62.3%. It also gave a viability, T/C (second compound 3.16 µM, first compound 0.01 µM) of 58.1%, a viability, T/C (second compound 3.16 µM, first compound 0.0316 µM) of 67.2% and a viability, T/C (second compound 3.16 µM, first compound 0.1 µM) of 58.8%. It also gave a viability, T/C (second compound 10 µM, first compound 0.000316 µM) of 38.9%, a viability, T/C (second compound 10 µM, first compound 0.001 µM) of 38.5% and a viability, T/C (second compound 10 µM, first compound 0.00316 µM) of 39.3%. For the same compound, the viability, T/C (second compound 10 µM, first compound 0.01 µM) was 46.7%, the viability, T/C (second compound 10 µM, first compound 0.0316 µM) was 45.7% and the viability, T/C (second compound 10 µM, first compound 0.1 µM) was 46.1%.
With `CNC(=O)c1ccc(N2C(=S)N(c3ccc(C#N)c(C(F)(F)F)c3)C(=O)C2(C)C)cc1F` the viability, T/C (compound 0.0316 µM) was 98% [middle of 4 runs], the viability, T/C (compound 0.1 µM) was 97% [middle of 4 runs] and the viability, T/C (compound 0.316 µM) was 97% [middle of 4 runs]. The viability, T/C (compound 1 µM) was 102% [middle of 4 runs], the viability, T/C (compound 3.16 µM) was 93.3% [middle of 4 runs] and the viability, T/C (compound 10 µM) was 72.8% [middle of 4 runs]. The IC50 (curve of compound) was > 10000 nM.

Source: PubChem BioAssay AID1963960 (Molecular Pharmacology Branch, DTP, NCI, 2024)
